Legend:
[1] = test system: collagen-induced aggregation in rabbit platelets; experiment: Inhibition of collagen-induced platelet aggregation in rabbit platelet rich plasma; format: cell-based; conditions: Oryctolagus cuniculus, read-out: Inhibition rate of collagen-induced aggregation; for inhibition at 100 µM (stock): Concentration of the test compound solution 10^-4 mole; for inhibition at 10 µM (stock): Concentration of the test compound solution 10^-5 mole
Protocol: (§1) The platelet aggregation inhibitory effect was measured by using a Platelet Aggregation Tracer Model PAT-6M (manufactured by Nikoh Bio-Science Co., Ltd.) by a method according to Kimura, et al., [IGAKU-NO-AYUMI (Progress in Medicine), Vol. 114, No. 9, pp. 718-727, Aug. 30, 1980, and Nature, pp. 927-929, 1962].
(§2) The blood sample used for the test was a 1:9 (by volume) mixture of "3.8%-CITRATE"® (a registered trademark for 3.8%-sodium citrate, manufactured by Green Cross Corp.) and whole blood collected from rabbits. Said sample was subjected to 10-minute centrifugal separation at 1,000 r.p.m. (200xG) to obtain a platelet rich plasma (PRP). The PRP thus obtained was separated, and the remaining blood sample was further subjected to 15-minute centrifugal separation at 3,000 r.p.m. (2,000xG) to obtain a platelet poor plasma (PPP).
(§3) The number of platelets in the PRP was counted by the Brecher-Clonkite Method, and the PRP was diluted with the PPP to prepare a PRP sample with a platelet concentration of 600,000/microliter to prepare for an adenosine diphosphate (ADP)-induced aggregation test, and a collagen-induced aggregation test. 0.2 Milliliter of the PRP sample was added to 2 microliters of a solution of a test compound of predetermined concentration and this mixture was placed in a 37° C. thermostat for one minute. Then 20 microliters of an ADP or collagen solution was added to the mixture. In this test, the ADP solution was prepared by adjustment to a concentration of 7.5×10^-5 M by using Auren-Beronal buffer solution (pH 7.35). Further, the collagen solution was prepared by adjustment to a concentration of 200 micrograms/ml by using collagen reagent of "Holm"® (manufactured by Hormon-Chemie Munchen, GmbH.) which was diluted wih a physiological saline solution.
(§4) The transmittance of the resultant test mixture was determined and the change of transmittance was recorded by using the aggregometer at a stirrer speed of 1,100 r.p.m.
(§5) The platelet aggregation inhibitory effect of the test compound was measured in terms of inhibition rate (%) with respect to the aggregation rate of the controls. The aggregation rate was calculated from the following formula.
(§6) Aggregation rate=[(c-a)/(b-a)]×100
(§7) The percent inhibition is calculated from the following formula.
(§8) Inhibition rate (%)=[(A-B)/A]×100
(§9) The inhibitory effect of the test compounds on collagen-induced aggregation in rabbit platelets is shown in Table 1, similarly such effect on ADP-induced aggregation in rabbit platelets is shown in Table 2.

[2] = test system: ADP-induced aggregation in rabbit platelets; experiment: Inhibition of ADP-induced platelet aggregation in rabbit platelet rich plasma; format: cell-based; conditions: Oryctolagus cuniculus, read-out: Inhibition rate of ADP-induced aggregation; for inhibition at 100 µM (stock): Concentration of the test compound solution 10^-4 mole; for inhibition at 10 µM (stock): Concentration of the test compound solution 10^-5 mole
Protocol: as §1, §2, §3, §4, §5, §6, §7, §8, §9

[3] = Change of blood pressure, intravenous administration, anesthetized dog; format: in vivo; set-up: unit not given here; conditions: femoral artery
Protocol: The change of blood flow in coronary artery and the change of blood pressure were measured by a method according to Yakura et al., [Japan Journal of Pharmacology, Vol. 57, pages 380-391 (1961)] and according to Taira, et al. [Clin. Exp. Pharmacol. Physiol., Vol. 6, pages 301-316, (1976)].
An adult bastard dog of either sex weighing 8-13 kg was anesthetized with sodium pentobarbital at the rate of 30 mg/kg by intraveneous administration, then the dog was fixed in supination and was theracotomized under a condition of forced breathing. After another intraveneous administration of sodium heparin at the rate of 500 U/kg, 100 U/kg per hour, the dog was subjected to the following experiments.
(2) Intraveneous administration
Morawitz's cannula was cannulated to the coronary sinus venosus through the auricula dextra cordis, and the blood in vein was circulated to the right carotid. The blood flow was measured by an electromagnetic blood flow meter equipped with a blood flow observation probe in the extracorporeal circulation path of the vein. The systolic force was measured by a systolometer (pick-up) placed at the left ventricle of heart, the blood pressure was measured from the femoral artery, and the heart rate was measured from the pulse. A compound to be tested was administered through the cannula being cannulated in femoral vein. The increased amount of the blood flow in coronary artery after the administration of the test compound is shown in Table 4, also the change of blood pressure is shown in Table 5.

| Structure (SMILES) | inhibition at 100 µM (stock) [1] | inhibition at 10 µM (stock) [1] | inhibition at 100 µM (stock) [2] | inhibition at 10 µM (stock) [2] | Change of blood pressure ([3]; 10 micrograms/kg) | Change of blood pressure ([3]; 30 micrograms/kg) | Change of blood pressure ([3]; 100 micrograms/kg) | Change of blood pressure ([3]; 300 micrograms/kg) | Change of blood pressure ([3]; 3 micrograms/kg) |
| --- | --- | --- | --- | --- | --- | --- | --- | --- | --- |
| COC(=O)C1=C(C)NC(C)=C(C(=O)OCCOc2ccc3c(c2)CCC(=O)N3)C1c1ccccc1[N+](=O)[O-] (stereo not drawn) [Compound 21, 6-{2-[2,6-Dimethyl-5-methoxycarbonyl-4-(2-nitrophenyl)-1,4-dihydropyridin-3-carboxy]-ethoxy}-3,4-dihydrocarbostyril] | 100% | 99% | 58% | 27% | -7 | -12 | -28 | -42 | – |
| COC(=O)C1=C(C)NC(C)=C(C(=O)OCCCCOc2ccc3c(c2)CCC(=O)N3)C1c1ccccc1C(=O)OC (stereo not drawn) [Compound 30, 6-{4-[2,6-Dimethyl-5-methoxycarbonyl-4-(2-methoxycarbonyl)-1,4-dihydropyridin-3-carboxy]butoxy}-3,4-dihydrocarbostyril] | 100% | 3% | 89% | – | -1 | -16 | -38 | – | – |
| COC(=O)C1=C(C)NC(C)=C(C(=O)OCCOc2ccc3[nH]c(=O)ccc3c2)C1c1ccccc1[N+](=O)[O-] (stereo not drawn) [Compound 20, 6-{2-[2,6-Dimethyl-5-methoxycarbonyl-4-(2-nitrophenyl)-1,4-dihydropyridin-3-carboxy]-ethoxy}carbostyril] | 100% | 100% | 100% | 65% | – | -4 | -8 | -32 | – |
| C=CCOc1ccc(OCCCCOC(=O)C2=C(C)NC(C)=C(C(=O)OC)C2c2cccc([N+](=O)[O-])c2)c2c1NC(=O)CC2 (stereo not drawn) [Compound 19, 5-{4-[2,6-Dimethyl-5-methoxycarbonyl-4-(3-nitrophenyl)-1,4-dihydropyridin-3-carboxy]-butoxy}-8-alloyloxy-3,4-dihydrocarbostyril] | 17% | – | 17% | – | -34 | -44 | -55 | – | -22 |
| COC(=O)C1=C(C)NC(C)=C(C(=O)OCCCOc2ccc3[nH]c(=O)ccc3c2)C1c1ccccc1 (stereo not drawn) [Compound 44, 6-[3-(2,6-Dimethyl-5-methoxycarbonyl-4-phenyl-1,4-dihydropyridin-3-carboxy)propoxy]-carbostyril] | 100% | 25% | 100% | 20% | -1 | -3 | -6 | -52 | – |
| COC(=O)C1=C(C)NC(C)=C(C(=O)OCCCCOc2ccc3c(c2)CCC(=O)N3)C1c1ccccc1SC (stereo not drawn) [Compound 26, 6-{4-[2,6-Dimethyl-5-methoxycarbonyl-4-(2-methylthiophenyl)-1,4-dihydropyridin-3-carboxy]butoxy}-3,4-dihydrocarbostyril] | 100% | 19% | 87% | 22% | -6 | -10 | -21 | -42 | – |
| COC(=O)C1=C(C)NC(C)=C(C(=O)OCCCOc2cccc3[nH]c(=O)ccc23)C1c1cccc([N+](=O)[O-])c1 (stereo not drawn) [Compound 22, 5-{3-[2,6-Dimethyl-5-methoxycarbonyl-4-(3-nitrophenyl)-1,4-dihydropyridin-3-carboxy]-propoxy}carbostyril] | 100% | 21% | 62% | 13% | -2 | -8 | -18 | -36 | – |
| COC(=O)C1=C(C)NC(C)=C(C(=O)OCCCCOc2ccc3c(c2)CCC(=O)N3)C1c1ccccc1 (stereo not drawn) [Compound 28, 6-[4-(2,6-Dimethyl-5-methoxycarbonyl-4-phenyl-1,4-dihydropyridin-3-carboxy)butoxy]-3,4-dihydrocarbostyril] | 63% | – | 52% | – | -10 | -7 | -20 | -47 | -1 |
| COC(=O)C1=C(C)NC(C)=C(C(=O)OCCCCOc2ccc3c(c2)CCC(=O)N3)C1c1ccccc1Cl (stereo not drawn) [Compound 27, 6-{4-[2,6-Dimethyl-5-methoxycarbonyl-4-(2-chlorophenyl)-1,4-dihydropyridin-3-carboxy]-butoxy}-3,4-dihydrocarbostyril] | 61% | – | 42% | – | -10 | -27 | -52 | – | -4 |
| COC(=O)C1=C(C)NC(C)=C(C(=O)OCCCCOc2cccc3[nH]c(=O)ccc23)C1c1cccc([N+](=O)[O-])c1 (stereo not drawn) [Compound 18, 5-{4-[2,6-Dimethyl-5-methoxycarbonyl-4-(3-nitrophenyl)-1,4-dihydropyridin-3-carboxy]-butoxy}carbostyril] | 100% | 3% | 48% | 15% | -5 | -19 | -33 | -43 | – |
